Assay results taken from ChEMBL document CHEMBL2375317, “Heterocyclic bismuth carboxylates based on a diphenyl sulfone scaffold: synthesis and antifungal activity against Saccharomyces cerevisiae” (Eur J Med Chem, 2013).

What follows are substances tested on Saccharomyces cerevisiae (assay: Antifungal activity against Saccharomyces cerevisiae W303-1A at 30 mM after 48 hrs).
Type: functional, organism-based
Work on “10-(Indol-3-acetoxy)phenothiabismine 5,5-dioxide” yielded an inhibition zone (IZ) of 13 mm. Work on “tert-butyl-[2-[tert-butyl(dimethyl)silyl]oxy-10-chloro-5,5-dioxo-benzo[b][1,4]benzothiabismin-8-yl]oxy-dimethyl-silane” yielded an inhibition zone (IZ) of 0 mm. Work on “10-(N-Phthalylglycyloxy)phenothiabismine 5,5-dioxide” yielded an inhibition zone (IZ) of 12 mm. With “10-(9-Anthranoyloxy)phenothiabismine 5,5-dioxide” the inhibition zone (IZ) was 14 mm. “10-(p-tolyl)benzo[b][1,4]benzothiabismine 5,5-dioxide” showed an inhibition zone (IZ) of 0 mm. In the case of “10-(4-Acetoxybenzoyloxy)phenothiabismine 5,5-dioxide”, the inhibition zone (IZ) is reported as 17 mm. “10-(Nicotinoyloxy)phenothiabismine 5,5-dioxide” was tested, and the inhibition zone (IZ) was 14 mm. With “10-(2-Acetoxybenzoyloxy)phenothiabismine 5,5-dioxide” the inhibition zone (IZ) was 12 mm. Substance “10-(Benzoyloxy)phenothiabismine 5,5-dioxide” has an inhibition zone (IZ) of 17 mm. Work on “10-(1,3-Dibromoazulene-2-carboxy)phenothiabismine 5,5-dioxide” yielded an inhibition zone (IZ) of 12 mm. Work on “10-chlorobenzo[b][1,4]benzothiabismine 5,5-dioxide” yielded an inhibition zone (IZ) of 18 mm. Work on “2,8-Dihydroxy-10-chlorophenothiabismine 5,5-dioxide” yielded an inhibition zone (IZ) of 8 mm. In the case of “10-(2-Naphthoyloxy)phenothiabismine 5,5-dioxide”, the inhibition zone (IZ) is reported as 12 mm. For “10-(1-Naphthoyloxy)phenothiabismine 5,5-dioxide”, the inhibition zone (IZ) was 13 mm. Work on “10-(Cinnamoyloxy)phenothiabismine 5,5-dioxide” yielded an inhibition zone (IZ) of 14 mm. “10-(Azulene-1-carboxy)phenothiabismine 5,5-dioxide” gave an inhibition zone (IZ) of 11 mm. In the case of “10-(4-Nitrobenzoyloxy)phenothiabismine 5,5-dioxide”, the inhibition zone (IZ) is reported as 17 mm. “10-(Azulene-6-carboxy)phenothiabismine 5,5-dioxide” gave an inhibition zone (IZ) of 12 mm. “10-Chloro-2-phenylphenothiabismine 5,5-dioxide” gave an inhibition zone (IZ) of 0 mm. For “10-(4-Aminobenzoyloxy)phenothiabismine 5,5-dioxide”, the inhibition zone (IZ) was 15 mm. “10-Chloro-2-tert-butylphenothiabismine 5,5-dioxide” was tested, and the inhibition zone (IZ) was 0 mm. Substance “10-(1,3-Dichloroazulene-2-carboxy)phenothiabismine 5,5-dioxide” has an inhibition zone (IZ) of 13 mm. “10-(Azulene-2-carboxy)phenothiabismine 5,5-dioxide” showed an inhibition zone (IZ) of 14 mm.
